pEC50, pIC50: −log10 of the molar value. Read-outs that look alike come from different tables or passages of the source.
What was measured:
[1] = test system: HIV; test: microbe, parasite or virus in culture; settings: Human immunodeficiency virus 1, read-out: LHIV IC50 value with 40% human serum
[2] = test system: HIV; settings: McCallister et al. 2008 poster; cited from earlier work
[3] = test system: HIV
[4] = test system: NL4-3 strain with V370A site directed mutant polymorphism; test: microbe, parasite or virus in culture; assay type: cell-based, HIV-1
[5] = test system: HIV NL4-3 wt; test: microbe, parasite or virus in culture; assay type: cell-based
[6] = Human immunodeficiency virus 1, NL43, Consensus Clade B Sp1 Genotype, read-out: MT4 NL. wt* EC50
[7] = Human immunodeficiency virus 1, NL43, HIV MT4 Antiviral Cell Assay of Example 84, read-out: EC50 NL4-3 wt

C=C(C)[C@@H]1CC[C@]2(C(=O)O)CC[C@]3(C)[C@H](CC[C@@H]4[C@@]5(C)CC[C@H](OC(=O)CC(C)(C)C(=O)O)C(C)(C)[C@@H]5CC[C@]43C)[C@@H]12 [Bevirimat]
pIC50 [1]: 5.41
Cmin target [2]: > 20000 ng/mL
fold shift in the IC50 value, LHIV assay, 40% human serum ([3]; addition of 40% human serum): 174.9 fold
fold shift with human serum ([3]; human protein shift, human serum (HS)): 157 fold

CC(C)C1=C2[C@H]3CC[C@@H]4[C@@]5(C)CC[C@H](OC(=O)CC(C)(C)C(=O)O)C(C)(C)[C@@H]5CC[C@@]4(C)[C@]3(C)CC[C@@]2(C(=O)C(=O)NC2(c3ccc(Cl)cc3)CC2)CC1=O [Compound A]
EC50 ([4]; Human immunodeficiency virus 1, NL43, read-out: MT4 NL. V370A EC50 (nM)): 16 nM
pEC50 [5, 6]: 7.85

CC(C)C1=C2[C@H]3CC[C@@H]4[C@@]5(C)CC[C@H](OC(=O)CC(C)(C)C(=O)O)C(C)(C)[C@@H]5CC[C@@]4(C)[C@]3(C)CC[C@@]2([C@H](O)CNCc2cccc(Cl)c2)CC1=O [compound 37]
pEC50 [5, 7]: 7.57

CC(C)C1=C2[C@H]3CC[C@@H]4[C@@]5(C)CC[C@H](OC(=O)CC(C)(C)C(=O)O)C(C)(C)[C@@H]5CC[C@@]4(C)[C@]3(C)CC[C@@]2([C@@H](O)CNC2CCCCC2)CC1=O [compound 59]
pEC50 [5, 7]: 8.28

CC(C)C1=C2[C@H]3CC[C@@H]4[C@@]5(C)CC[C@H](OC(=O)CC(C)(C)C(=O)O)C(C)(C)[C@@H]5CC[C@@]4(C)[C@]3(C)CC[C@@]2(C(=O)C(=O)NC2(c3ncc(Cl)cn3)CC2)CC1=O [CompoundB]
pEC50 [5, 6]: 8.10

CC(=O)O[C@H](CNCc1ccccc1)[C@@]12CC[C@]3(C)[C@H](CC[C@@H]4[C@@]5(C)CC[C@H](OC(=O)CC(C)(C)C(=O)O)C(C)(C)[C@@H]5CC[C@]43C)C1=C(C(C)C)C(=O)C2 [compound 53]
pEC50 [5, 7]: 8.21

CC(C)C1=C2[C@H]3CC[C@@H]4[C@@]5(C)CC[C@H](OC(=O)CC(C)(C)C(=O)O)C(C)(C)[C@@H]5CC[C@@]4(C)[C@]3(C)CC[C@@]2(C(=O)C(=O)N(CCN(C)C)Cc2ccc(Cl)cc2)CC1=O [Compound C]
pEC50 ([4]; Human immunodeficiency virus 1, NL43, read-out: MT4 antiviral assay V370A polymorphism EC50): 7.72
pEC50 ([4]; Human immunodeficiency virus 1, NL43, read-out: V370A MT4 EC50): 7.72
pEC50 ([4]; Human immunodeficiency virus 1, NL43, read-out: protein adjusted EC50 for the V370A polymorphic virus): 6.03
pEC50 ([5]; Human immunodeficiency virus 1, NL43, Table 7, read-out: HIV w/t MT4 EC50): 8.22
pEC50 ([5]; Human immunodeficiency virus 1, NL43, read-out: MT4 antiviral assay NL4-3 strain / HIV wild type EC50): 8.22

CC(C)C1=C2[C@H]3CC[C@@H]4[C@@]5(C)CC[C@H](OC(=O)CC(C)(C)C(=O)O)C(C)(C)[C@@H]5CC[C@@]4(C)[C@]3(C)CC[C@@]2([C@@H](O)CNCc2cccc(Cl)c2)CC1=O [compound 38]
pEC50 [5, 7]: 8.28
